Like-named read-outs stand apart in the source and are kept apart here. Marks after values point to notes of the source that are not given here. Each block holds one compound with its values, some of them ahead of it. Peptide text beside a SMILES is read from it.
Assays:
[1] = system: human prostate cancer cells (LNCaP/AR); test: Tumor inhibition in nude mice bearing human prostate cancer cells (LNCaP/AR); settings: Example 2; intratumoral 100 μl/mouse every 3 days x3; next day; avg tumor volume 91 mm^3
[2] = system: human liver cancer cells (HepG2); test: Tumor weight and tumor inhibition in nude mice bearing HepG2; type: in vivo; settings: for Intratumoral injection Tumor inhibition rate / Intratumoral injection Tumor weight / Tumor inhibition rate of intraperitoneal injection: 5th day after last dose
Description: (§1) One of the core characteristics of tumors is heterogeneity. […] The corresponding negative control was normal saline.
(§2) They were injected intraperitoneally and intratumorally.
The negative control group was given normal saline. The compositions of the study drug are as shown in the table below: 4 types and concentrations of amino acid based nutrient single drugs (X % amino acid based nutrients), 18 types and concentrations of ineffective absorption drugs (Y % ineffective absorption drugs), 24 compositions comprising various types and concentrations of amino acid based nutrients and ineffectively absorption drugs (X % amino acid based nutrients/Y % ineffectively absorption drugs).
The negative control was normal saline. The compositions of 16 study drugs, as shown in the table below, comprise: a 5-fluorouracil single drug of 4 varying concentrations (X % 5-fluorouracil), and an amino acid based nutrient with 5 varying concentrations (Y % amino acid based nutrient), 7 compositions consisting of 5-fluorouracil of varying concentrations and an amino acid based nutrient of varying concentrations (X % 5-fluorouracil/Y % amino acid based nutrient). […] The dose at each time was: 5-fluorouracil 50 mg/kg, glutathione ≤1 g/kg, and an injection volume was ≤150 μl/mouse.
The negative control was normal saline, the positive control was 1% 5-fluorouracil, and the study drug was 1% methylene blue/10% amino acid based nutrient composition (the type of the amino acid based nutrient is variable). The amino acid based nutrients in the compositions used in study groups 1-13 were: arginine, glycine, cysteine hydrochloride, valine, threonine, proline, histidine hydrochloride, phenylalanine, lysine, leucine, alanine, glutathione, serine, and the study drug used in the study group 14 was 1% methylene blue/5% arginine/5% glycine.

[3] = system: human stomach cancer cells (BGC823); test: Tumor inhibition in nude mice bearing human stomach cancer cells (BGC823); settings: Example 2; intratumoral 100 μl/mouse every 3 days x3; next day; avg tumor volume 85 mm^3
HepG2 = test: Intratumoral tissue destruction, histological observation of HepG2 tumors; settings: Table 7; intratumoral injection, once, ≤130 μl/mouse; next day; scale 0 = blank control, 5 = 5% acetic acid
[4] = system: human head and neck cancer cells (Fμda); test: Tumor inhibition in nude mice bearing human head and neck cancer cells (Fμda); type: in vivo; settings: Example 2; intratumoral 100 μl/mouse every 3 days x3; next day; avg tumor volume 109 mm^3
Source text: as §1

[5] = system: human breast cancer cells (MDA-MB231); test: Tumor inhibition in nude mice bearing human breast cancer cells (MDA-MB231); settings: Example 2; intratumoral 100 μl/mouse every 3 days x3; next day; avg tumor volume 71 mm^3
[6] = system: human ovary cancer cells (PA1); test: Tumor inhibition in nude mice bearing human ovary cancer cells (PA1); settings: Example 2; intratumoral 100 μl/mouse every 3 days x3; next day; avg tumor volume 104 mm^3
[7] = system: human thyroid cancer cells (SW579); test: Tumor inhibition in nude mice bearing human thyroid cancer cells (SW579); settings: Example 2; intratumoral 100 μl/mouse every 3 days x3; next day; avg tumor volume 103 mm^3
[8] = system: human nasopharynx cancer cells (CNE1); test: Tumor inhibition in nude mice bearing human nasopharynx cancer cells (CNE1); settings: Example 2; intratumoral 100 μl/mouse every 3 days x3; next day; avg tumor volume 78 mm^3
[9] = system: pancreatic cancer cells PANC-1; settings: once, 150 μl, next day, vs blank group
[10] = system: pancreatic cancer cells PANC-1; test: Tumor inhibition in nude mice bearing pancreatic cancer cells PANC-1; type: in vivo; settings: for Tumor inhibition rate of intraperitoneal injection / Tumor inhibition rate of intratumoral injection: Table 3, avg tumor volume 105 mm^3, 100 μl/mouse every 3 days x3, next day after last dose; for Tumor inhibition rate: Table 4, avg tumor volume 136 mm^3, intratumoral every 3 days x3, ≤150 μl, next day
Description: as §2
After anatomy, the tumor weight was measured and the tumor inhibition rate was calculated.

[11] = system: human lung cancer cells (A549); test: Tumor inhibition in nude mice bearing human lung cancer cells (A549); settings: Example 2; intratumoral 100 μl/mouse every 3 days x3; next day; avg tumor volume 83 mm^3
[12] = Saturated concentration of 5-fluorouracil; type: physicochemical; settings: aqueous solution
[13] = pH of the drug composition; type: physicochemical; settings: aqueous solution
breast cancer 4T1 cells = test: Tumor weight and tumor inhibition in BALB/c mice bearing breast cancer 4T1 cells;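 also: subcutaneous grafts in the right axilla, tumors excised and weighed after euthanasia, inhibition rate derived from group mean tumor weight versus the negative control group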
hyperthyroidism = test: Hyperthyroidism model in rats (levothyroxine); settings: first experiment, 25th day after administration, RIA
[14] = Example 2, intratumoral 100 μl/mouse every 3 days x3, next day, avg tumor volume 81 mm^3
[15] = Table 6, avg tumor volume 153 mm^3, ≤120 μl/mouse every 3 days x3
[16] = Table 8, avg tumor volume 175 mm^3, ≤150 μl/mouse every 3 days x3
[17] = Table 16, avg tumor volume 169 mm^3, intratumoral every 3 days x3, ≤150 μl/mouse, 5th day
[18] = Table 10, avg tumor volume 336 mm^3, 150 μl/mouse every 3 days x3, 5th day after last dose
[19] = Table 12, avg tumor volume 317 mm^3, intratumoral 150 μl/mouse every 3 days x3, 5th day
[20] = Table 14, avg tumor volume 325 mm^3, intratumoral 150 μl/mouse every 3 days x3, 5th day
[21] = Table 17, avg tumor volume 317 mm^3, intratumoral 150 μl/mouse every 3 days x3, fifth day
[22] = Table 13, avg tumor volume 307 mm^3, intratumoral 150 μl/mouse every 3 days x3, 5th day
[23] = Table 15, avg tumor volume 316 mm^3, intratumoral 150 μl/mouse every 3 days x3, 5th day

Structure (SMILES): N[C@@H](CCC(=O)N[C@@H](CS)C(=O)NCC(=O)O)C(=O)O [10% glutathione, Reduced glutathione]
Tumor inhibition rate [1]: 65% | Tumor inhibition rate [2, 14]: 61% | Intratumoral injection Tumor inhibition rate [2, 15]: 58% | Intratumoral injection Tumor weight [2, 15]: 0.97 ± 0.24 g | Tumor inhibition rate of intraperitoneal injection [2, 15]: 3% | Intratumoral injection Tumor inhibition rate [2, 16]: 59% | Intratumoral injection Tumor weight [2, 16]: 1.04 ± 0.23 g | Tumor inhibition rate of intraperitoneal injection [2, 16]: 1% | Tumor inhibition rate [2, 17]: (62%) | Tumor inhibition rate [3]: 59% | Intratumoral tissue destruction (HepG2): 1 | Tumor inhibition rate [4]: 53% | Tumor inhibition rate [5]: 64% | Tumor inhibition rate [6]: 67% | Tumor inhibition rate [7]: 61% | Tumor inhibition rate [8]: 61% | histological observation of the tumor ([9]; intraperitoneal injection): no obvious difference between group A and the blank group | histological observation of the tumor ([9]; intratumoral injection): obvious intratumoral tissue destruction | Tumor inhibition rate of intraperitoneal injection [10]: 51% | Tumor inhibition rate of intratumoral injection [10]: 3% | Tumor inhibition rate [10]: 57% | Tumor inhibition rate [11]: 59%

Structure (SMILES): Cl.N[C@@H](CCC(=O)O)C(=O)O [3% glutamic hydrochloride, L-glutamic hydrochloride]
Tumor inhibition rate [1]: 59% | Tumor inhibition rate [2, 14]: 62% | Tumor inhibition rate [2, 17]: (70%) | Tumor inhibition rate [3]: 57% | Tumor inhibition rate [4]: 58% | Tumor inhibition rate [5]: 61% | Tumor inhibition rate [6]: 61% | Tumor inhibition rate [7]: 63% | Tumor inhibition rate [8]: 68% | Tumor inhibition rate of intraperitoneal injection [10]: 68% | Tumor inhibition rate of intratumoral injection [10]: 5% | Tumor inhibition rate ([10]; hydrochloride): 69% | Tumor inhibition rate [11]: 57%

Structure (SMILES): C[C@H](N)C(=O)N[C@@H](CCC(N)=O)C(=O)O [10% ALA-GLN, Alanyl-glutamine dipeptide] (H-Ala-Gln-OH)
Tumor inhibition rate [1]: 61% | Tumor inhibition rate [2, 14]: 56% | Tumor inhibition rate [3]: 51% | Tumor inhibition rate [4]: 51% | Tumor inhibition rate [5]: 57% | Tumor inhibition rate [6]: 62% | Tumor inhibition rate [7]: 59% | Tumor inhibition rate [8]: 63% | Tumor inhibition rate of intraperitoneal injection [10]: 53% | Tumor inhibition rate of intratumoral injection [10]: 2% | Tumor inhibition rate [11]: 52%

saturated concentration (Canti) [12]: about 1.5%
Structure (SMILES): O=c1[nH]cc(F)c(=O)[nH]1 [5-fluorouracil]

Structure (SMILES): N=C(N)NCCC[C@H](N)C(=O)O [20% arginine, L-arginine]
Tumor inhibition rate [1]: 55% | Tumor inhibition rate [2, 14]: 63% | Intratumoral injection Tumor inhibition rate [2, 16]: 61% | Intratumoral injection Tumor weight [2, 16]: 0.99 ± 0.21 g | Tumor inhibition rate of intraperitoneal injection [2, 16]: 5% | Tumor inhibition rate ([2]; Table 11, avg tumor volume 164 mm^3, intratumoral every 3 days x3, ≤150 μl, fifth day after last dose): (60%) | Tumor inhibition rate [2, 17]: (61%)** | Tumor inhibition rate [3]: 52% | Tumor inhibition rate [4]: 56% | Drug pH ([13]; Table 14): 10.8 | Tumor inhibition rate [5]: 55% | Tumor inhibition rate [6]: 56% | Tumor inhibition rate [7]: 62% | Tumor inhibition rate [8]: 63% | Tumor inhibition rate of intraperitoneal injection [10]: 56% | Tumor inhibition rate of intratumoral injection [10]: 5% | Tumor inhibition rate [10]: 61% | Tumor inhibition rate [11]: 53% | Intratumoral injection Tumor inhibition rate (breast cancer 4T1 cells; [18]): 33% | Intratumoral injection Tumor weight (breast cancer 4T1 cells; [18]): 0.86 ± 0.23 g | Tumor inhibition rate (breast cancer 4T1 cells; [19]): 27% | Tumor weight (x ± s) (breast cancer 4T1 cells; [19]): 1.72 g | Tumor inhibition rate (breast cancer 4T1 cells; [20]): 28% | Tumor weight (x ± s) (breast cancer 4T1 cells; [20]): 1.75 ± 0.29 g | Tumor inhibition rate (breast cancer 4T1 cells; [21]): 34% | Tumor weight (breast cancer 4T1 cells; [21]): 1.03 ± 0.29 g

Structure (SMILES): Cn1cc[nH]c1=S [Thiamazole, methimazole]
serum T3 (hyperthyroidism; negative control 1.9±0.1, blank 0.8±0.1): 1.1±0.1 | serum T4 (hyperthyroidism; negative control 171.2±9.3, blank 39.6±3.1): 66.3±3.6

Structure (SMILES): O=C([O-])O.[Na+] [5% sodium bicarbonate, sodium bicarbonate]
Drug pH ([13]; Table 13): 6.9 | Tumor inhibition rate (breast cancer 4T1 cells; [22]): 21% | Tumor weight (g) (x ± s) (breast cancer 4T1 cells; [22]): 1.79 ± 0.24 g

Drug pH ([13]; Table 15): 2.5
Structure (SMILES): CC(=O)O [15% acetic acid, acetic acid]
Tumor inhibition rate (breast cancer 4T1 cells; [23]): 68% | Tumor weight (x ± s) (breast cancer 4T1 cells; [23]): 0.70 ± 0.18 g

From patent US20220151935A1, “USE OF AMINO ACID BASED NUTRIENTS AND PHARMACEUTICAL COMPOSITION CONTAINING THE SAME” (priority 2018, published 2022)
